Data as given in patent US6432963B1, “Pyrimidine-5-carboxamide derivatives” (Yamanouchi Pharmaceutical Co., Ltd., priority 1997, dated 2002).
Where a name gives a salt, the structure may show the parent alone.

The compounds below were run against T1, Syk tyrosine kinase (Homo sapiens, UniProt P43405) (assay: Syk tyrosine kinase inhibition test (SPA system)). Conditions: His-tag fused human Syk, Band 3 peptide, [γ-33P]ATP, room temperature 1 hour; read-out: inhibition activity as IC50 value upon Syk tyrosine kinase.
T1 construct: FLAG tag (8 amino acid residues) (C); made in house; host or cells: Sf-9 insect cells (baculovirus, pFASTBAC HT)
Type: biochemical

IC50, ≤ 100 nM:
NCCNc1ncc(C(N)=O)c(Nc2ccc3ccccc3c2)n1 [2-(2-aminoethylamino)-4-(2-naphthylamino)pyrimidine-5-carboxamide], NCCNc1ncc(C(N)=O)c(Nc2cccc([N+](=O)[O-])c2)n1 [2-(2-aminoethylamino)-4-(3-nitroanilino)pyrimidine-5-carboxamide], NCCNc1ncc(C(N)=O)c(Nc2cccc(C(F)(F)F)c2)n1 [2-(2-aminoethylamino)-4-(3-trifluoromethylanilino)pyrimidine-5-carboxamide], NC(=O)c1cnc(NC2CCCCC2N)nc1Nc1cc(Cl)cc(Cl)c1 (stereo not drawn) [2-(cis-2-aminohexylamino)-4-(3,5-dichloroanilino)pyrimidine-5-carboxamide dihydrochloride]
